Measured values: the supplement of paper PMC10307832

How the values were obtained:
Experiment in all cases: relative viability (nuclei count vs DMSO), 5 days (fraction); higher = more cells survive
Elesclomol + OSI-027 = compound: CN(NC(=O)CC(=O)NN(C)C(=S)c1ccccc1)C(=S)c1ccccc1 [Elesclomol] + COc1cccc2cc(-c3nc([C@H]4CC[C@H](C(=O)O)CC4)n4ncnc(N)c34)[nH]c12 [OSI-027] (partner 0.5 µM)
Outline: (§1)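 Nuclei were stained with Hoechst during a one-step fixation (final 0.05% Triton X-100, 1% formaldehyde, 1 ug/ml Hoechst) carried out 5 days after dosing, then counted on 4× images. The cells, lung cancer lines in 1536-well plates, had been dosed by pin tool the day after seeding with one drug alone or a fixed anchor-drug dose plus five library-drug doses (not always all listed) in √10 steps. Relative viability is the nuclei count in treated wells divided by that in vehicle wells, and each value is the median of duplicate plates.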

Elesclomol + Trametinib = compound: CN(NC(=O)CC(=O)NN(C)C(=S)c1ccccc1)C(=S)c1ccccc1 [Elesclomol] + CC(=O)Nc1cccc(-n2c(=O)n(C3CC3)c(=O)c3c(Nc4ccc(I)cc4F)n(C)c(=O)c(C)c32)c1 [Trametinib] (partner 0.02 µM)
Outline: as §1

Elesclomol + Luminespib = compound: CN(NC(=O)CC(=O)NN(C)C(=S)c1ccccc1)C(=S)c1ccccc1 [Elesclomol] + CCNC(=O)c1noc(-c2cc(C(C)C)c(O)cc2O)c1-c1ccc(CN2CCOCC2)cc1 [Luminespib] (partner 0.01 µM)
Outline: as §1

Elesclomol + Vorinostat = compound: CN(NC(=O)CC(=O)NN(C)C(=S)c1ccccc1)C(=S)c1ccccc1 [Elesclomol] + O=C(CCCCCCC(=O)Nc1ccccc1)NO [Vorinostat] (partner 1 µM)
Outline: as §1

Elesclomol + AZD7762 = compound: CN(NC(=O)CC(=O)NN(C)C(=S)c1ccccc1)C(=S)c1ccccc1 [Elesclomol] + NC(=O)Nc1cc(-c2cccc(F)c2)sc1C(=O)N[C@H]1CCCNC1 [AZD7762] (partner 0.2 µM)
Outline: as §1

Cell Line | relative viability (Elesclomol + OSI-027; first compound 0.003162 µM) | relative viability (Elesclomol + OSI-027; first compound 0.01 µM) | relative viability (Elesclomol + OSI-027; first compound 0.03162 µM) | relative viability (Elesclomol + OSI-027; first compound 0.1 µM) | relative viability (Elesclomol + Trametinib; first compound 0.003162 µM) | relative viability (Elesclomol + Trametinib; first compound 0.01 µM) | relative viability (Elesclomol + Trametinib; first compound 0.03162 µM) | relative viability (Elesclomol + Trametinib; first compound 0.1 µM) | relative viability (Elesclomol + Luminespib; first compound 0.003162 µM) | relative viability (Elesclomol + Luminespib; first compound 0.01 µM) | relative viability (Elesclomol + Luminespib; first compound 0.03162 µM) | relative viability (Elesclomol + Luminespib; first compound 0.1 µM) | relative viability (Elesclomol + Vorinostat; first compound 0.003162 µM) | relative viability (Elesclomol + Vorinostat; first compound 0.01 µM) | relative viability (Elesclomol + Vorinostat; first compound 0.03162 µM) | relative viability (Elesclomol + Vorinostat; first compound 0.1 µM) | relative viability (Elesclomol + AZD7762; first compound 0.003162 µM) | relative viability (Elesclomol + AZD7762; first compound 0.01 µM) | relative viability (Elesclomol + AZD7762; first compound 0.03162 µM) | relative viability (Elesclomol + AZD7762; first compound 0.1 µM)
EKVX | 0.767 | 0.457 | 0.329 | 0.185 | 0.313 | 0.188 | 0.144 | 0.105 | 0.831 | 0.539 | 0.169 | 0.145 | 0.659 | 0.336 | 0.241 | 0.253 | 0.569 | 0.318 | 0.206 | 0.0929
EMC-BAC-2 | 0.408 | 0.225 | 0.352 | 0.176 | 0.813 | 0.808 | – | 0.4 | 1.23 | 1.04 | 0.535 | 0.383 | 0.486 | 0.231 | – | 0.22 | 1.2 | 0.775 | 0.831 | 0.684
EPLC-272H | 0.295 | – | 0.304 | 0.138 | 0.264 | 0.111 | 0.09 | 0.119 | 0.333 | – | 0.576 | 0.125 | 0.178 | 0.0788 | 0.133 | 0.129 | 0.255 | 0.159 | 0.11 | 0.104
H3255 | 0.538 | 0.537 | 0.489 | 0.421 | 0.585 | 0.532 | 0.328 | 0.284 | 0.883 | 0.875 | 0.547 | 0.395 | 0.843 | 0.62 | 0.426 | 0.44 | 0.818 | 0.773 | 0.584 | 0.521
HARA | 0.524 | 0.211 | 0.31 | 0.0896 | 0.704 | 0.465 | 0.189 | 0.159 | 0.545 | 0.669 | 0.1 | 0.0826 | 0.607 | 0.542 | 0.616 | 0.163 | 0.348 | 0.288 | 0.302 | 0.227
HCC-15 | 0.727 | 0.412 | 0.276 | 0.0961 | 0.351 | 0.42 | 0.345 | 0.158 | 0.27 | 0.194 | 0.11 | 0.0457 | 0.81 | 0.776 | 0.645 | 0.265 | 1.15 | 1.3 | 1.13 | 0.632
HCC-44 | 0.636 | 0.198 | 0.351 | 0.11 | 1.14 | 1.09 | 1.08 | 1.05 | 1.01 | 0.86 | 0.213 | 0.178 | 1.09 | 1.16 | 1.16 | 1.08 | 1 | 0.942 | 0.996 | 1
HCC-78 | 0.356 | 0.399 | 0.364 | 0.322 | 0.7 | 0.549 | 0.674 | 0.722 | – | – | – | – | 0.46 | 0.38 | 0.36 | 0.553 | 0.672 | 0.696 | 0.513 | 0.642
HCC-366 | 1.05 | 0.139 | 0.823 | 0.0338 | 0.383 | 0.311 | 0.114 | 0.0129 | – | – | – | – | 0.371 | 0.228 | 0.173 | 0.0207 | 0.312 | 0.255 | 0.393 | 0.0195
